Test results published in US20220340566A1, “BENZYL AMINE-CONTAINING 5,6-HETEROAROMATIC COMPOUNDS USEFUL AGAINST MYCOBACTERIAL INFECTION” (priority 2019, published 2022).
Read-outs that look alike come from different tables or passages of the source.

Key:
[1] = test system: Mycobacterium avium ATCC700898; assay: Determination of IC85 against M. avium (resazurin fluorescence); type: cell-based; conditions: Mycobacterium avium
[2] = Metabolic stability test in pooled human liver microsomes; type: in vitro ADME; conditions: human liver microsomes 0.5 mg protein/mL, 1 mmol/L NADPH, 37° C., 30 minutes
In short: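 Remaining-rate readout: parent compound left after 30 min versus 0 min (set as 100%), measured by LC/MS/MS or SPE/MS. Oxidative reaction ran at 37° C. with 1 mmol/L NADPH, 0.5 mg protein/mL pooled human microsomes, 50 mmol/L Tris-HCl pH 7.4 buffer.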

[3] = ATCC700898, M. avium ATCC700898, CAMHB medium, 37° C., 3 days incubation then resazurin, fluorescence one day later, read-out: IC85

Row | SMILES | IC85 [1, 3] | MS_h_% (remaining amount of compound after reaction, 0 minute = 100%) [2] | IC85 ([1]; ATCC700898)
1 | Cc1ccc2nc(C)c(C(=O)NCc3ccc(S(F)(F)(F)(F)F)cc3)n2c1 [Compound I-3-44] | 110 nM | 63.9% | –
2 | CCc1nc2ccc(Cl)cn2c1C(=O)NCc1ccc(-n2cc3c(n2)CN(c2ccc(OC(F)(F)F)cc2)C3)c(F)c1.Cc1ccc(S(=O)(=O)O)cc1 [Compound I-3-45] | – | 63.2% | 4.6 nM
3 | Cc1cn2c(C(=O)NCc3ccc(Oc4cccc(C(F)(F)F)c4)cc3)c(C)nc2s1 [Compound I-3-46] | 610 nM | 63.1% | –
4 | CCc1nc2ccc(Cl)cn2c1C(=O)NCc1ccc(-n2cc3c(n2)CN(c2ccc(OC(F)(F)F)cc2)C3)c(F)c1.Cl [Compound I-3-47] | 5.1 nM | 62% | –
5 | Cc1nc2cnccn2c1C(=O)NCc1ccc(N2CCN(c3ccc(OC(F)(F)F)cc3)CC2)c(F)c1 [Compound I-3-48] | 660 nM | 60.4% | –
6 | Cc1ccn2c(C(=O)NCc3ccc(O[C@H]4CCN(c5ccc(OC(F)(F)F)cc5)C4)c(F)c3)c(C)nc2c1 [Compound I-3-49] | 500 nM | 60.2% | –
7 | COc1ccn2nc(C)c(C(=O)NCc3ccc(N4CCN(c5ccc(OC(F)(F)F)cc5)[C@@H](C)C4)cc3)c2c1 [Compound I-3-50] | 5.8 nM | 58.5% | –
